# Read-outs that look alike come from different tables or passages of the source.
# How the values were obtained:
# [1] = molecular target: T1, human recombinant serotonin (5-Hydroxytryptamine) 5-HT5A receptor (Homo sapiens, UniProt P47898); assay: Serotonin 5-HT5A radioligand binding ([3H]LSD); conditions: compound at 0.1 μM
# T1 construct: expressed in transfected cells; host or cells: CHO-K1
# Procedure: Compounds of the invention were incubated with 1.7 nM [^3H]Lysergic acid diethylamide (LSD) for 60 min at 37° C. […] Receptor proteins were filtered and washed, the filters were counted to determine [^3H]LSD specifically bound.
# [2] = molecular target: T2, human recombinant dopamine D2L receptor (Homo sapiens, UniProt P14416); assay: Dopamine D2L radioligand binding ([3H]Spiperone); conditions: 0.16 nM [3H]Spiperone; for inhibition at 1 µM: read-out: Dopamine D2L (1 μM), percent inhibition of specific binding, compound at 1 μM
# T2 construct: expressed in transfected cells; host or cells: CHO
# Procedure: Non-specific binding was estimated in the presence of 10 μM Haloperidol. Receptor proteins were filtered and washed, the filters were then counted to determine [^3H]Spiperone specifically bound.
# [3] = molecular target: T3, human recombinant adrenergic α2C receptor (Homo sapiens, UniProt P18825); assay: Adrenergic α2C radioligand binding ([3H]MK-912); conditions: read-out: Adrenergic (0.1 μM) a2C, percent inhibition of specific binding; compound at 0.1 μM; 1 nM [3H]MK-912
# T3 construct: expressed in transfected cells; host or cells: insect Sf9 cells
# T3 sequence (P18825 1-462): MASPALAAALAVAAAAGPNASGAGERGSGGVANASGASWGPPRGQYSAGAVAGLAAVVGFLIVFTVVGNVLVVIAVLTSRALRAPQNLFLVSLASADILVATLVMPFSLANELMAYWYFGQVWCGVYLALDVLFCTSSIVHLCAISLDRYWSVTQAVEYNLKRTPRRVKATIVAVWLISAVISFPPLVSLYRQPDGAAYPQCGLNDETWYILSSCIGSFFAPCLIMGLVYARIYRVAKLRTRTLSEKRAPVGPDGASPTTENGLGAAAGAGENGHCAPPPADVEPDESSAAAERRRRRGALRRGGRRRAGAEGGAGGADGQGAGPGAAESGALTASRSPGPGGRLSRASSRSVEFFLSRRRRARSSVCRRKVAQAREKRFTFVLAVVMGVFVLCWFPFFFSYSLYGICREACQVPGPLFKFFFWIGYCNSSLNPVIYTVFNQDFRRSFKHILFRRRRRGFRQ
# Procedure: To evaluate in radioligand binding assays the activity of compounds of the invention, human recombinant adrenergic α2C receptor expressed in insect Sf9 cells (Uhlen, S. et al, J. Pharmacol. Exp. Ther. 271:1558, 1994) in a modified Tris-HCl buffer (50 mM Tris-HCl, pH 7.4, 12.5 mM MgCl2, 2 mM EDTA) was used. Compounds of the invention were incubated with 1 nM [^3H]MK-912 for 60 min at 25° C. Non-specific binding was estimated in the presence of 10 μM WB-4101. Receptor proteins were filtered and washed, the filters were then counted to determine [^3H]MK-912 specifically bound. […] Compounds of the invention were tested in this biochemical assay and percent inhibition of specific binding was determined.
# [4] = molecular target: T4, human recombinant serotonin (5-Hydroxytryptamine) 5-HT7 receptor (Homo sapiens, UniProt P34969); assay: Serotonin 5-HT7 radioligand binding ([3H]LSD); conditions: compound at 0.1 μM; for inhibition at 0.1 µM: read-out: Inhibition of ligand binding, Serotonin 5-HT7 (percent inhibition of specific binding)
# T4 construct: expressed in transfected cells; host or cells: CHO
# Procedure: Lysergic acid diethylamide (LSD) for 120 min. at 25° C. […] Receptor proteins were filtered and washed, the filters were then counted to determine [^3H]LSD specifically bound.
# [5] = molecular target: T5, human recombinant serotonin (5-Hydroxytryptamine) 5-HT2C receptor (Homo sapiens, UniProt P28335); assay: Serotonin 5-HT2C radioligand binding ([3H]Mesulergine); conditions: compound at 0.1 μM; read-out: Inhibition of ligand binding, Serotonin 5-HT2C (percent inhibition of specific binding)
# T5 construct: expressed in transfected cells; host or cells: CHO-K1
# T5 sequence (P28335 33-458): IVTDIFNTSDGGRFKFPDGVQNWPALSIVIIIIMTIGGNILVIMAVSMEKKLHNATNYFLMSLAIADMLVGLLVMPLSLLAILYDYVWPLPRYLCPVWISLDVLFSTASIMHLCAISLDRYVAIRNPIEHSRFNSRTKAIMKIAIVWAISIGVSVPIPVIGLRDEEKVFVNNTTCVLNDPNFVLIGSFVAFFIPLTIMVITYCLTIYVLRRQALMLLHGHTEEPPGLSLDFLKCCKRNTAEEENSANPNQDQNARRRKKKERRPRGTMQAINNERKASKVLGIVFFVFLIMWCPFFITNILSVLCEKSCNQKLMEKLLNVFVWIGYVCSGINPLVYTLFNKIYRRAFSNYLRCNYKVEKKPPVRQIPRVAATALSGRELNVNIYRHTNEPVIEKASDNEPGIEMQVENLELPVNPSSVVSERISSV
# Procedure: Compounds of the invention were incubated with 1 nM [^3H]Mesulergine for 60 min at 25° C. Non-specific binding was estimated in the presence of 1 μM Mianserin. Receptor proteins were filtered and washed, the filters were then counted to determine [^3H]Mesulergine specifically bound.
# [6] = molecular target: T6, human recombinant serotonin (5-Hydroxytryptamine) 5-HT2A receptor (Homo sapiens, UniProt P28223); assay: Serotonin 5-HT2A radioligand binding ([3H]Ketanserin); conditions: read-out: Inhibition of ligand binding, Serotonin 5-HT2A (percent inhibition of specific binding)
# T6 construct: expressed in transfected cells; host or cells: CHO-K1
# Procedure: Compounds of the invention were incubated with 0.5 nM [^3H]Ketanserin for 60 min at 25° C. Non-specific binding was estimated in the presence of 1 μM Mianserin. Receptor proteins were filtered and washed, the filters were then counted to determine [^3H]Ketanserin specifically bound.
# [7] = molecular target: T7, human recombinant serotonin (5-Hydroxytryptamine) 5-HT6 receptor (Homo sapiens, UniProt P50406); assay: Serotonin 5-HT6 radioligand binding ([3H]LSD); conditions: compound at 0.1 μM; for inhibition at 0.1 µM: read-out: Inhibition of ligand binding, Serotonin 5-HT6 (percent inhibition of specific binding)
# T7 construct: expressed in transfected cells; host or cells: HeLa
# Text: Receptor proteins were filtered and washed, the filters were then counted to determine [3H]LSD specifically bound.
# [8] = molecular target: T8, rat adrenergic α1A receptor (Rattus norvegicus, UniProt P43140); assay: Adrenergic α1A radioligand binding ([3H]Prazosin); conditions: read-out: Adrenergic (0.1 μM) a1A, percent inhibition of specific binding; compound at 0.1 μM; 0.25 nM [3H]Prazosin
# T8 construct: rat adrenergic α1A receptor obtained from Wistar Rat submaxillary glands; from tissue; host or cells: Wistar rat submaxillary glands
# T8 sequence (P43140 1-466): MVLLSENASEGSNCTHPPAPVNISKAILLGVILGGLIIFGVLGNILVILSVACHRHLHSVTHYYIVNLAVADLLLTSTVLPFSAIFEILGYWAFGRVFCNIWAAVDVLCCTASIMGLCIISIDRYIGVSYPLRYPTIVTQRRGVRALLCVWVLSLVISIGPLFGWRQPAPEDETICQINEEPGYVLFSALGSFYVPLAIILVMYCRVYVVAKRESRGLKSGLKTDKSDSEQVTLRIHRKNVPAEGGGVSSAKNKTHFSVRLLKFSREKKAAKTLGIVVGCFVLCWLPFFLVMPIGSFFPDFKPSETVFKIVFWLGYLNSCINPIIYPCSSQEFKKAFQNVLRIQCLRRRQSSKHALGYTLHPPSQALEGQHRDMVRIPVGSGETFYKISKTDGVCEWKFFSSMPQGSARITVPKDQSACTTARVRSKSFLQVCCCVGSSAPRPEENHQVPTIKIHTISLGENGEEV
# Procedure: To evaluate in radioligand binding assays the activity of compounds of the invention, rat adrenergic α1A receptor obtained from Wistar Rat submaxillary glands (Michel, A. et al, Br. J. Pharmacol. 98:883, 1989) in a modified Tris-HCl buffer (50 mM Tris-HCl buffer, pH 7.4, 0.5 mM EDTA) was used. Compounds of the invention were incubated with 0.25 nM [^3H]Prazosin for 60 min at 25° C. Non-specific binding was estimated in the presence of 10 μM phentolamine Receptor proteins were filtered and washed, the filters were then counted to determine [^3H]Prazosin specifically bound. […] Compounds of the invention were tested in this biochemical assay and percent inhibition of specific binding was determined.
# [9] = molecular target: T9, human recombinant histamine H1 receptor (Homo sapiens, UniProt P35367); assay: Histamine H1 radioligand binding ([3H]Pyrilamine); conditions: read-out: Histamine H1 Binding (1 μM), percent inhibition of specific binding; compound at 1 μM; 1.2 nM [3H]Pyrilamine
# T9 construct: expressed in transfected cells; host or cells: CHO-K1
# Procedure: To evaluate in radioligand binding assays the activity of compounds of the invention, human recombinant histamine H1 receptor expressed in Chinese hamster ovary (CHO) K1 cells (De Backer, M. et al, Biochem. Biophys. Res. Comm. 197(3):1601, 1993) in a modified Tris-HCl buffer (50 mM Tris-HCl, pH 7.4, 2 mM MgCl2, 100 mM NaCl, 250 mM Sucrose) was used. […] Non-specific binding was estimated in the presence of 1 μM Pyrilamine. Receptor proteins were filtered and washed, the filters were then counted to determine [^3H]Pyrilamine specifically bound. […] Biochemical assay results are presented as the percent inhibition of specific binding in Table 2.
# T2 sequence (P14416 whole entry): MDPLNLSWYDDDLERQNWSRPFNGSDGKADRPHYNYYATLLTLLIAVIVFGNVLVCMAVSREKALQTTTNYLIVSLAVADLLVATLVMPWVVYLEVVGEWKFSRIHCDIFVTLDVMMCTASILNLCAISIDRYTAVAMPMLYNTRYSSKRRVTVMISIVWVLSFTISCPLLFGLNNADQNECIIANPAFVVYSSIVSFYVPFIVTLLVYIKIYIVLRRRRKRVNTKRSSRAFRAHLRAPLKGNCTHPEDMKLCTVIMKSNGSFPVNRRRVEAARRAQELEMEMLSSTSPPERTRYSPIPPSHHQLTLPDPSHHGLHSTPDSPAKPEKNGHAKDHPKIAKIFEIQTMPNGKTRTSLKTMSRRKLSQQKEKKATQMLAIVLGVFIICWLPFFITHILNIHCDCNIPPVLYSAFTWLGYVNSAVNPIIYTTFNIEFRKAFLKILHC
# T9 sequence (P35367 whole entry): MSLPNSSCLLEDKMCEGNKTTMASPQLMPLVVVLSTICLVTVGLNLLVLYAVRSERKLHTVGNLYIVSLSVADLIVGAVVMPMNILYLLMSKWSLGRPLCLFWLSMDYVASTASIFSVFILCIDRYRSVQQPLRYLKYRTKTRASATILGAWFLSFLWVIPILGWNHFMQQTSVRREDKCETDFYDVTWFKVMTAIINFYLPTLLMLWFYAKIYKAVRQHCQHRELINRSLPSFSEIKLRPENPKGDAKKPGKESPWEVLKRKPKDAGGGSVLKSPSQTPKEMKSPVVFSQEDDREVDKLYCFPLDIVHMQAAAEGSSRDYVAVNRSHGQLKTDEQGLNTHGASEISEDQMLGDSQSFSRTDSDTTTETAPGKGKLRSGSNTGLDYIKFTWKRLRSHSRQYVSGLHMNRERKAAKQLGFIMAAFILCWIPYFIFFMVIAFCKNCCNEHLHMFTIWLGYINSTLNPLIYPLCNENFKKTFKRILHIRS
# T4 sequence (P34969 whole entry): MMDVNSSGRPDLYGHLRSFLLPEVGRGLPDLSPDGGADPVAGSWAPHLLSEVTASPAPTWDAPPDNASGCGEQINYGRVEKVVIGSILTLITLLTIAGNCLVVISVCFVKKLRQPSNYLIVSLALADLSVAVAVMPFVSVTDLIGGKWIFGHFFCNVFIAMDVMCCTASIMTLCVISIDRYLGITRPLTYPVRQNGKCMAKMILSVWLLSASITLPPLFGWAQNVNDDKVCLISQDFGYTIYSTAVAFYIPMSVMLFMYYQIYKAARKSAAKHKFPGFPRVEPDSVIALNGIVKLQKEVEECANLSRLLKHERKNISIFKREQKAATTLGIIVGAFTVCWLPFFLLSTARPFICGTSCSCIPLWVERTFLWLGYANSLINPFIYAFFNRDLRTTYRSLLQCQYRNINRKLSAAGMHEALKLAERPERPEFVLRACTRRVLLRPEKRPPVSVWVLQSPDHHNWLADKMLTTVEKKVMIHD
# T7 sequence (P50406 whole entry): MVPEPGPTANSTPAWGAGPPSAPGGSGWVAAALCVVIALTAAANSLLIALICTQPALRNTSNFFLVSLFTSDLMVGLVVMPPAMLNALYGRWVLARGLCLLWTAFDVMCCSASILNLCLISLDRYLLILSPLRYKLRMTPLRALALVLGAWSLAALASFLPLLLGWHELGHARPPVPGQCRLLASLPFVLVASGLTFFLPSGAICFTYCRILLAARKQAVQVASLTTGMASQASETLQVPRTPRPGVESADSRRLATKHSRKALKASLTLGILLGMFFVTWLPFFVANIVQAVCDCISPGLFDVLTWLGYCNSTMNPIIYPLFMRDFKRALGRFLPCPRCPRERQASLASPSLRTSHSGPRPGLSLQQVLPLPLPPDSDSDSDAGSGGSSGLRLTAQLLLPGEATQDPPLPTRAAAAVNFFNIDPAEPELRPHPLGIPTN
# T6 sequence (P28223 whole entry): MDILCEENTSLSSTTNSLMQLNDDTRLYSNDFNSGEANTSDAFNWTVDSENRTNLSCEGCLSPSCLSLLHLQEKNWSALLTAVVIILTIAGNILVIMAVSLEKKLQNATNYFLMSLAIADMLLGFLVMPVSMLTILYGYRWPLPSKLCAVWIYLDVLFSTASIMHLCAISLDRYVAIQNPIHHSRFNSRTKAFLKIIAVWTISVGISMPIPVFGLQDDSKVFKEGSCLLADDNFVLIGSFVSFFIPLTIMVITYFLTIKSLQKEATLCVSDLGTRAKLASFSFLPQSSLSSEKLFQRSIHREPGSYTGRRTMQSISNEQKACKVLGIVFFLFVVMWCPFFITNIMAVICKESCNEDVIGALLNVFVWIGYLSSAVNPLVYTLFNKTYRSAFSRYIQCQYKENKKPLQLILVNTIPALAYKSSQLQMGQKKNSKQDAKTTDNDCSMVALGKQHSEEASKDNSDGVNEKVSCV
# T1 sequence (P47898 whole entry): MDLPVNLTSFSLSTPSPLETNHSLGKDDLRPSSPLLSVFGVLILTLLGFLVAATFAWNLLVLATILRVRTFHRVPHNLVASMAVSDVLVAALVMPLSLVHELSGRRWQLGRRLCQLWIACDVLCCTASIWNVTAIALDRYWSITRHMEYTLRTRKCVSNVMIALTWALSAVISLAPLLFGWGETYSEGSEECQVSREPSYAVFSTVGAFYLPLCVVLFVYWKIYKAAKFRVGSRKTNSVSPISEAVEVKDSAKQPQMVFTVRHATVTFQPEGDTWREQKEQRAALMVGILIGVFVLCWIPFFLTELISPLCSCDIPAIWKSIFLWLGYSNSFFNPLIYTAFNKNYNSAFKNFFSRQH
smiles,measurement,setting,value
"Cc1ccc2c(c1)c1c(n2-c2ccccc2-c2ccc(O)nc2)CCN(C)C1 [Compound No. 80, 5-(2-(2,8-dimethyl-3,4-dihydro-1H-pyrido[4,3-b]indol-5(2H)-yl)phenyl)pyridin-2-ol]","Inhibition of ligand binding, Serotonin 5-HT5A (percent inhibition of specific binding)",[1],25%
same,inhibition at 1 µM,[2],2%
same,inhibition at 0.1 µM,[3],-6%
same,"Inhibition of ligand binding, Serotonin 5-HT7 (percent inhibition of specific binding)",[4],41%
same,inhibition at 0.1 µM,[5],11%
same,inhibition at 0.1 µM,[6],28%
same,"Inhibition of ligand binding, Serotonin 5-HT6 (percent inhibition of specific binding)",[7],−1%
same,inhibition at 0.1 µM,[8],15%
same,inhibition at 1 µM,[9],28%
Cc1cc(C)c2c(c1)c1c(n2-c2cscc2-c2ccncc2)CCN(C)C1 [Compound No. 149],inhibition at 0.1 µM,"[1]; read-out: Inhibition of ligand binding, Serotonin 5-HT5A (percent inhibition of specific binding)",-13%
same,inhibition at 0.1 µM,"[2]; read-out: Dopamine D2L (0.1 μM), percent inhibition of specific binding, compound at 0.1 μM",5%
same,inhibition at 0.1 µM,[3],2%
same,inhibition at 0.1 µM,[4],11%
same,inhibition at 0.1 µM,[6]; compound at 0.1 μM,45%
same,inhibition at 0.1 µM,[7],93%
same,inhibition at 0.1 µM,[8],14%
same,inhibition at 1 µM,[9],-5%
"Cc1ccc2c(c1)c1c(n2-c2ccsc2)CCN(C)C1 [Compound 14, 2,8-dimethyl-5-thiophen-3-yl-2,3,4,5-tetrahydro-1H-pyrido[4,3-b]indole]",inhibition at 1 µM,[2],50%
same,inhibition at 0.1 µM,[3],4%
same,inhibition at 0.1 µM,[4],61%
same,inhibition at 0.1 µM,[5],95%
same,inhibition at 0.1 µM,[6]; compound at 0.1 μM,97%
same,inhibition at 0.1 µM,[7],82%
same,inhibition at 0.1 µM,[8],30%
same,inhibition at 1 µM,[9],86%
